Target: T1, hERG1 (Homo sapiens, UniProt Q12809)
T1 construct: expressed in transfected cells; host or cells: HEK 293
Assay: Whole cell patch-clamp of hERG1 currents in transfected HEK 293 cells
Format: cell-based
Design: Inactivation ΔV0.3: unit not given here
Details: for Deactivation Δλ/λcon: deactivation time constant relative to baseline; for Activation V1/2 (mV): shift in voltage-dependence of activation; for Inactivation ΔV0.3: shift in voltage-dependence of inactivation; for Amplitude I/Icon: tail current relative to baseline
Method: Transfected HEK cells on glass cover slips were placed in a chamber mounted on a modified stage of an inverted microscope. The chamber was superfused at a rate of 2 mL/min with a normal external solution. The extracellular solution contained (in mM) NaCl 140, KCl 5.4, CaCl2 1, MgCl2 1, HEPES 5, glucose 5.5, pH 7.4, with NaOH. Micropipettes were pulled from borosilicate glass capillary tubes on a programmable horizontal puller (Sutter Instruments, Novato, CA). Standard patch-clamp methods were used to measure the whole cell currents of hERG1 mutants expressed in HEK 293 cells using the AXOPATCH 200B amplifier (Axon Instruments). Unless otherwise indicated, tail currents were recorded when the voltage was returned to −50 mV from +50 mV. Further details on electrophysiological methods are collected in Methods S1.
Electrophysiology Protocol:
The pipette solution contained the following (at mM concentration): KCl 10, K-aspartate 110, MgCl2 5, Na2ATP 5, EGTA 10, HEPES 5, and CaCl2 1. The solution was adjusted to pH 7.2 with KOH. The extracellular solution contained the following (at mM concentration): NaCl 140, KCl 5.4, CaCl2 1, MgCl2 1, HEPES 5, and glucose 5.5. The solution was adjusted to pH 7.4 with NaOH. For IKr measurements, the whole cell configuration of the patch clamp method was used. The series resistance was less than 7
MΩ. The data were sampled at 1 kHz. The holding potential was -80 mV. The activation of hERG tail currents was induced by depolarization to a range of potentials from +50 to -100 mV in 10 mV steps for 1 second. This was followed by repolarization to -100 mV for 1 second to record the tail currents.
-100 mV, a -120 mV 1 second pre-pulse was applied to completely close the hERG channels before subsequent depolarization. All of the tail currents reported in this manuscript represent dofetilide-sensitive currents. The inactivation of hERG was measured by a previously reported triple-pulse protocol5, 6. The holding potential was -80 mV. The hERG channel was first depolarized to +50 mV for 1 second. Recovery from inactivation was achieved using a short pulse (a 10 ms hyperpolarization) to -120 mV, followed by the application of test pulses from -100 to 0 mV for 1 second in 10 mV steps.
A voltage of -100 mV was selected because it was on the flat part of the inactivation-voltage relationship. The methods employed are identical to ones previously reported. […]

[1] = Conc. 10 µM, listed as MC-I-153b
[2] = Conc. 50 µM, listed as MC-I-153b
[3] = Conc. 50 µM, listed as MC-I-159b

T1 sequence (Q12809 whole entry): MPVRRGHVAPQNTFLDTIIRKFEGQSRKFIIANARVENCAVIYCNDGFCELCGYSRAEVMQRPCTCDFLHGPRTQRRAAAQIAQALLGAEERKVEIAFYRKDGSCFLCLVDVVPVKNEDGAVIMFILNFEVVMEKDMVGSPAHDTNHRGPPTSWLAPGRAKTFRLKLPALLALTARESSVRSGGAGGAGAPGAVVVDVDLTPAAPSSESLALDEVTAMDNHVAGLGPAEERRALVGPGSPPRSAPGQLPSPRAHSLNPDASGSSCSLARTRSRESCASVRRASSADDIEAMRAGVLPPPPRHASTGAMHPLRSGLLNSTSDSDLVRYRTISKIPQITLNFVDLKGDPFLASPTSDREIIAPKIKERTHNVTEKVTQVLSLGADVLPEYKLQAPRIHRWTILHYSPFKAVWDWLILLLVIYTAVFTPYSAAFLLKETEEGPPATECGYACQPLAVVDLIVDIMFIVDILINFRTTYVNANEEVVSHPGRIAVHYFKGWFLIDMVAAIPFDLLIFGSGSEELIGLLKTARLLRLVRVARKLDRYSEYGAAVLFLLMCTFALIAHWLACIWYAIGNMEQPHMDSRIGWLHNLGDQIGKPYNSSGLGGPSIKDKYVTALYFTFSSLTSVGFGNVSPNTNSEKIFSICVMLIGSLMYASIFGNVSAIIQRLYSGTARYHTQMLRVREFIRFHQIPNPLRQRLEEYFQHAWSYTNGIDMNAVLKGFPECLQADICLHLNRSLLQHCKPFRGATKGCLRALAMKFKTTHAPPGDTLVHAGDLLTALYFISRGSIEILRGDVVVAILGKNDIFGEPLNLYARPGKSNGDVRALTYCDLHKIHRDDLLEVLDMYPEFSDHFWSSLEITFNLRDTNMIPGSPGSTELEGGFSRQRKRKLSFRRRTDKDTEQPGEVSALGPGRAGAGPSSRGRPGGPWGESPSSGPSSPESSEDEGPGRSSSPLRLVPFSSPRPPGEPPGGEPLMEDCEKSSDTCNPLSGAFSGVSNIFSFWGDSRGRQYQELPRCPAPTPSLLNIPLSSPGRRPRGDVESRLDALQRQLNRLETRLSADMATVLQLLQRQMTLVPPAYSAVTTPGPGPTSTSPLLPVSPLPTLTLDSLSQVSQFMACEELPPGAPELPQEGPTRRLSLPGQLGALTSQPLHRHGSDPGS

## COCOc1ccc(C(F)(F)F)cc1NC(=O)NC(=O)[C@H](C)NS(=O)(=O)c1ccc([N+](=O)[O-])cc1 [Compound 15]
Conc. 10 µM
  Deactivation Δλ/λcon: −0.1±0.1
  Activation V1/2 (mV): −3±3 mV
  Inactivation ΔV0.3: −11±2
  Amplitude I/Icon: 0.7±0.12
Conc. 30 µM
  Deactivation Δλ/λcon: −0.01±0.07
  Activation V1/2 (mV): 0±0 mV
  Inactivation ΔV0.3: −10±0
  Amplitude I/Icon: 0.5±0.04

## CN(C(=O)c1cccc(C(F)(F)F)c1)c1ccccc1 [Compound 18]
Conc. 50 µM
  Deactivation Δλ/λcon: −0.2±0.05
  Activation V1/2 (mV): 3.3±0.3 mV
  Inactivation ΔV0.3: −11.7±7.3
  Amplitude I/Icon: 0.8±0.07

## COCOc1ccc(C(F)(F)F)cc1NC(=O)NC(=O)[C@H](C)NCc1ccc(Br)cc1 [Compound 9]
Conc. 20 µM
  Deactivation Δλ/λcon: −0.1±0.1
  Activation V1/2 (mV): −9.1±2.1 mV
  Inactivation ΔV0.3: −3.5±1.5
  Amplitude I/Icon: 0.5±0.1

## COCOc1ccc(C(F)(F)F)cc1NC(=O)NC(=O)[C@H](C)N [Compound 16]
Conc. 10 µM
  Deactivation Δλ/λcon: −0.07±0.1
  Activation V1/2 (mV): −7±2 mV
  Amplitude I/Icon: 0.6±0.06
[1]
  Activation V1/2 (mV): shifts V1/2 of activation to hyperpolarized potentials
  Amplitude I/Icon: 0.6
Conc. 50 µM
  Deactivation Δλ/λcon: 0.003±0.14
  Activation V1/2 (mV): −19±3 mV
  Inactivation ΔV0.3: −27±2
  Amplitude I/Icon: 0.3±0.02
[2]
  Activation V1/2 (mV): left shifted the V1/2 of activation
  Amplitude I/Icon: 0.3

## COCOc1ccc(C(F)(F)F)cc1N [Compound 20]
Conc. 5 µM
  Deactivation Δλ/λcon: 0.03±0.01
  Activation V1/2 (mV): −2.5±0.5 mV
  Inactivation ΔV0.3: 0±1
Conc. 100 µM
  Deactivation Δλ/λcon: −0.06±0.2
  Activation V1/2 (mV): −3.3±1.3 mV
  Inactivation ΔV0.3: −1±0
  Amplitude I/Icon: 0.9±0.04

## C[C@H](NC(=O)c1ccc([N+](=O)[O-])cc1)C(=O)NC(=O)Nc1cc(C(F)(F)F)ccc1O [Compound 7]
Conc. 20 µM
  Deactivation Δλ/λcon: 0.6±0.3
  Activation V1/2 (mV): −7±1.1 mV
  Inactivation ΔV0.3: −3.5±4.5
  Amplitude I/Icon: 0.6±0.1

## C[C@H](NS(=O)(=O)c1ccc([N+](=O)[O-])cc1)C(=O)NC(=O)Nc1cc(C(F)(F)F)ccc1O [Compound 14]
Conc. 2 µM
  Deactivation Δλ/λcon: 0.4±
  Activation V1/2 (mV): −3±0.02 mV
  Amplitude I/Icon: 0.93±0.01
Conc. 50 µM
  Deactivation Δλ/λcon: 0.6±0.3
  Activation V1/2 (mV): −7.7±3.0 mV
  Inactivation ΔV0.3: 2.5±3.5
  Amplitude I/Icon: 0.39±0.04
Conc. 50 µM, listed as MC-I-169b
  Amplitude I/Icon: significantly more pharmacologic block

## COCOc1ccc(C(F)(F)F)cc1NC(=O)NC(=O)[C@H](C)NCc1ccc(C(F)(F)F)cc1 [Compound 10]
Conc. 20 µM
  Deactivation Δλ/λcon: 0.5±0.03
  Activation V1/2 (mV): −13.7±3.2 mV
  Inactivation ΔV0.3: −12.3±3.4
  Amplitude I/Icon: 0.4±0.02

## COCOc1ccc(C(F)(F)F)cc1NC(=O)Oc1ccccc1 [Compound 22]
Conc. 50 µM
  Deactivation Δλ/λcon: −0.2±0.09
  Activation V1/2 (mV): −1.7±2.3 mV
  Inactivation ΔV0.3: 0±0
  Amplitude I/Icon: 0.9±0.04

## C[C@H](NS(=O)(=O)c1ccc(N)cc1)C(=O)NC(=O)Nc1cc(C(F)(F)F)ccc1O [Compound 13]
1 µM
  pharmacologic activity: no pharmacologic activity
Conc. 2 µM
  Activation V1/2 (mV): −2±3 mV
  Amplitude I/Icon: 1.0
Conc. 20 µM
  Deactivation Δλ/λcon: 0.3±0.1
  Activation V1/2 (mV): −5±3 mV
  Inactivation ΔV0.3: +8±0.4
  Amplitude I/Icon: 1.0
Conc. 20 µM, listed as MC-I-159b
  Inactivation ΔV0.3: significantly shifted voltage-dependence of inactivation to depolarized potentials
Conc. 50 µM
  Deactivation Δλ/λcon: 0.5±0.1
  Activation V1/2 (mV): −2.5±3.0 mV
  Inactivation ΔV0.3: +10±0.6
  Amplitude I/Icon: 1±0.03
[3]
  Inactivation ΔV0.3: shifted the voltage-dependence of inactivation to depolarized potentials
  Amplitude I/Icon: did not produce pharmacological block

## C[C@H](NCc1ccccc1)C(=O)NC(=O)Nc1cc(C(F)(F)F)ccc1O [Compound 2]
Conc. 20 µM
  Deactivation Δλ/λcon: 0.6±0.4
  Activation V1/2 (mV): −14.5±5.5 mV
  Inactivation ΔV0.3: −21±0.0
  Amplitude I/Icon: 0.4±0.02

## COCOc1ccc(C(F)(F)F)cc1NC(=O)NC(=O)[C@H](C)NCc1ccc(F)cc1 [Compound 8]
Conc. 20 µM
  Deactivation Δλ/λcon: −0.1±0.04
  Activation V1/2 (mV): −12.5±2.5 mV
  Inactivation ΔV0.3: −4±8
  Amplitude I/Icon: 0.1±0.0

## C[C@H](NC(=O)c1ccccc1)C(=O)NC(=O)Nc1cc(C(F)(F)F)ccc1O [Compound 6]
Conc. 20 µM
  Deactivation Δλ/λcon: 0.8±0.1
  Activation V1/2 (mV): −3.7±0.7 mV
  Inactivation ΔV0.3: −2.5±1.5
  Amplitude I/Icon: 0.7±0.02

## CN(C(=O)c1cc(C(F)(F)F)ccc1Cl)c1ccccc1 [Compound 19]
Conc. 5 µM
  Activation V1/2 (mV): 0 mV
  Amplitude I/Icon: 0.9±0.1
Conc. 50 µM
  Deactivation Δλ/λcon: −0.2±0.08
  Activation V1/2 (mV): 1±3 mV
  Inactivation ΔV0.3: −2±1
  Amplitude I/Icon: 0.7±0.06

## C[C@H](NCc1ccc(F)cc1)C(=O)NC(=O)Nc1cc(C(F)(F)F)ccc1O [Compound 3]
Conc. 2 µM
  Deactivation Δλ/λcon: 1.7±0.3
  Activation V1/2 (mV): −17.3±0.3 mV
  Inactivation ΔV0.3: −7.5±4.5
Conc. 20 µM
  Deactivation Δλ/λcon: 1.7±0.3
  Activation V1/2 (mV): −17.3±0.3 mV
  Inactivation ΔV0.3: −7.5±4.5
  Amplitude I/Icon: 0.6±0.14

## COCOc1ccc(C(F)(F)F)cc1NC(=O)NC(=O)[C@H](C)NC(=O)c1ccccc1 [Compound 11]
Conc. 20 µM
  Deactivation Δλ/λcon: −0.1±0.2
  Activation V1/2 (mV): −12.7±2.7 mV
  Inactivation ΔV0.3: −1.5±1.5
  Amplitude I/Icon: 0.6±0.04

## O=C1NC(=O)c2cc(C(F)(F)F)ccc21 [Compound 23]
Conc. 50 µM
  Deactivation Δλ/λcon: 0.2±0.1
  Activation V1/2 (mV): −2.3±1.3 mV
  Inactivation ΔV0.3: −2±1.2
  Amplitude I/Icon: 1.0±0.01

## O=C(Nc1ccccc1)C1C(=O)Nc2ccccc21 (stereo not drawn) [Compound 24]
Conc. 50 µM
  Deactivation Δλ/λcon: 0.2±0.2
  Activation V1/2 (mV): −2.3±0.9 mV
  Inactivation ΔV0.3: 8±0
  Amplitude I/Icon: 0.8±0.03

## COCOc1ccc(C(F)(F)F)cc1NC(N)=O [Compound 21]
Conc. 50 µM
  Deactivation Δλ/λcon: 0.02±0.1
  Activation V1/2 (mV): −1.3±2.4 mV
  Inactivation ΔV0.3: 0.7±3.7
  Amplitude I/Icon: 0.9±0.04

## COCOc1ccc(C(F)(F)F)cc1NC(=O)NC(=O)[C@H](C)N(Cc1ccccc1)Cc1ccccc1 [Compound 17]
Conc. 10 µM
  Deactivation Δλ/λcon: 0.07±0.08
  Activation V1/2 (mV): −5±0.6 mV
  Inactivation ΔV0.3: −1±0.6
Conc. 50 µM
  Deactivation Δλ/λcon: 0.25±0.18
  Activation V1/2 (mV): −2±0 mV
  Inactivation ΔV0.3: +4±0
  Amplitude I/Icon: 0.95±0.03

## COCOc1ccc(C(F)(F)F)cc1NC(=O)NC(=O)[C@H](C)NC(=O)c1ccc([N+](=O)[O-])cc1 [Compound 12]
Conc. 20 µM
  Deactivation Δλ/λcon: −0.1±0.1
  Activation V1/2 (mV): −6.3±2.7 mV
  Inactivation ΔV0.3: −7.3±1.9
  Amplitude I/Icon: 0.6±0.19

— paper PMC4156305, “Structure Driven Design of Novel Human Ether-A-Go-Go-Related-Gene Channel (hERG1) Activators” (PLoS ONE, 2014)
